Experimental data as given in patent US12569473B2, “Methods to treat respiratory infection utilizing castanospermine analogs” (60 Degrees Pharmaceuticals, Inc., priority 2022, dated 2026).
Where a name gives a salt, the structure may show the parent alone. Read-outs that look alike come from different tables or passages of the source. Blank lines part the entries; values can stand above or below the compound they belong to.

How the values were obtained:
RSV strain A2 [1] = experiment: CPE inhibition assay, visual examination, RSV; format: cell-based; conditions: for EC50: human respiratory syncytial virus, unit inferred
Experimental: (§1) The efficacy of celgosivir and castanospermine against RSV and human rhinovirus-14 was assessed in vitro. For RSV studies, embryonic African green monkey kidney cells (MA-104) were grown in minimal essential medium (MEM) supplemented with 0.1% NaHCO3 and 10% fetal bovine serum. When performing antiviral assays, serum was reduced to 2% and […] gentamicin was added to the medium. RSV strain A2 was used for the studies. For rhinovirus studies, the HeLa Ohio cell line was used in place of MA-104 cells.
(§2) CPE inhibition assays with visual quantification of antiviral activity and cytotoxicity were performed as described by Sidwell and Huffman (1971) with slight modifications. Sidwell, R. W. and Huffman, J. H. (1971) Use of disposable micro-tissue culture plates for antiviral and interferon induction studies. Appl. Microbiol. 22, […]. […] All compounds were assayed for virus inhibition in quadruplicate and for cytotoxicity in duplicate. For rhinovirus studies, Pirodavir was applied at a concentration of 0.001-1 μg/ml as the positive control compound. For RSV studies, the positive control compound was Ribavirin applied at a concentration of 0.5-500 μg/ml. For each compound, two wells were set aside as uninfected, untreated cell controls per test and four wells per test received virus only and represented controls for virus replication. […] For all CPE-based assays, the 50% effective concentration (EC50) was calculated by regression analysis using the means of the CPE ratings at each concentration of compound. Morphological changes due to compound cytotoxicity were graded on a scale of 0-5; grade 5 was defined as 100% cytotoxicity. The 50% cytotoxic dose (IC50) was calculated by regression analysis. A selective index (S.I.) was calculated for each compound (SI.=(IC50)/(EC50)).

[2] = Cytotoxicity, visual examination, HeLa Ohio cells; format: cell-based; conditions: human, unit inferred
Experimental: as §1, §2

RSV strain A2 [3] = experiment: Neutral red assay of CPE inhibition, RSV; format: cell-based; conditions: human respiratory syncytial virus, MA104, MA-104 cells, unit inferred
Experimental: as §1
(§3) CPE inhibition assays with visual quantification of antiviral activity and cytotoxicity were performed as described by Sidwell and Huffman (1971) with slight modifications. Sidwell, R. W. and Huffman, J. H. (1971) Use of disposable micro-tissue culture plates for antiviral and interferon induction studies. Appl. Microbiol. 22, […]. […] All compounds were assayed for virus inhibition in quadruplicate and for cytotoxicity in duplicate. For rhinovirus studies, Pirodavir was applied at a concentration of 0.001-1 μg/ml as the positive control compound. For RSV studies, the positive control compound was Ribavirin applied at a concentration of 0.5-500 μg/ml. For each compound, two wells were set aside as uninfected, untreated cell controls per test and four wells per test received virus only and represented controls for virus replication. […] A selective index (S.I.) was calculated for each compound (SI.=(IC50)/(EC50)).
(§4) Neutral red assay of CPE inhibition and cytotoxicity was performed by a modified method as described by Cavenaugh et al. (1990). […] Briefly, medium was removed from each well of a plate scored for CPE from the visual CPE inhibition assay, 0.2 ml of neutral red (0.034% in PSS) was added to each of the wells of that plate and the plate incubated for 2 h at 37° C. in the dark. […] Absorbances at 540 and 450 nm were read with a microplate reader (Bio-Tek EL 1309; Bio-Tek Instruments). […] Absorbance values were expressed as percentages of untreated controls and EC50 and IC50 values were calculated by regression analysis

[4] = cited from earlier work
human rhinovirus-14 [5] = experiment: Neutral red assay of CPE inhibition, human rhinovirus-14; format: cell-based; conditions: HeLa Ohio cells, unit inferred
Experimental: as §1, §3, §4

human rhinovirus-14 [6] = experiment: CPE inhibition assay, visual examination, human rhinovirus-14; format: cell-based; conditions: for efficacy against human rhinovirus-14: at the concentrations tested (0.3-300 microM); for EC50: visual examination, HeLa Ohio cells, unit inferred
Experimental: as §1, §2

[7] = mice; 50 mg/kg BID dose; cited from earlier work
[8] = Cytotoxicity, neutral red assay, MA-104 cells; format: cell-based; conditions: African green monkey, MA-104 cells (embryonic African green monkey kidney), unit inferred
Experimental: as §1, §3, §4

[9] = Cytotoxicity, neutral red assay, HeLa Ohio cells; format: cell-based; conditions: human, unit inferred
Experimental: as §1, §3, §4

[10] = tested on: embryonic African green monkey kidney cells (MA-104); experiment: Cytotoxicity, visual examination, MA-104 cells; format: cell-based
Experimental: as §1, §2

[11] = Cytotoxicity, visual examination, MA-104 cells; format: cell-based, African green monkey; conditions: African green monkey
Experimental: as §1, §2

[12] = Pharmacokinetic simulations using CELADEN study parameters; set-up: species or system human; conditions: linear extrapolation
Experimental: It is known that a steady state minimum castanospermine concentration of 400 nanograms/ml is associated with a 50 mg/kg BID dose in mice and that the antiviral effect of celgosivir in vivo seems to be correlated with the minimum steady state concentration of castanospermine (Watanabe et al). […] International Publication No. WO 2014/143907 discloses pharmacokinetic parameters for castanospermine for the CELADEN study. […] Extrapolating linearly, therefore, the minimum protective dose (achieving 400 nanograms/ml steady state minimum) is approximately 40 mg every 6 h, 75 mg every 8 h and 225 mg every 12 h. Further, WO 2014/143907 discloses that the CELADEN study regimen produce a steady state maximum castanospermine concentration of 5100 nanograms/ml. […] The FDA has published generic scaling factors to adjust mg/kg dosing in animals to mg/kg dosing in humans. Generically for mice, that scaling factor is 12. Therefore, 50 mg/kg BID is equivalent to a dose of 4.2 mg/kg BID in humans, which for a 60 kg human is equivalent to 250 mg. The same dose administered three or four times daily is equivalent to 167 mg and 125 mg and 2.8 and 2.1 mg/kg respectively. In a 60 kg human, the maximum single dose is 6.7 mg/kg, and the maximum daily dose is 10 mg/kg.

RSV [strain A/A2] [13] = experiment: Nose and lung viral titers in RSV-infected cotton rats; format: in vivo, Cotton rats [Sigmodon hispidus]; conditions: Day 5 post infection, celgosivir 25, 50 or 100 mg/kg BID from one day before or after infection, synagis 2.5 mg/kg i.m. once per day, vs vehicle
Experimental: (§5) Cotton rats [Sigmodon hispidus, 2 male & 3 female, 6-8 weeks old] provided with standard rodent chow and water ad lib, were infected intranasally with RSV [strain A/A2, 10^5 pfu] on Day 0. Animals received celgosivir [25, 50 or 100 mg/kg BID for total daily doses of 50, 100 or 200 mg/kg] daily beginning one day before or after infection and were sacrificed on Day 5-post-infection for histopathology, qPCR, and viral load assessment. Control groups included a [i] positive control Synagis [2.5 mg/kg, i.m, once per day from the first day post-infection], [ii] vehicle control in which vehicle was administered twice per day beginning one day prior to RSV infection, [iii] a vehicle control group that were mock-infected with PBS for which treatment was initiated beginning one day prior to infection, and [iv] an untreated group mock infected with PBS that received no treatment. Animals were weighed on Day −1 and Day 5, and plasma was obtained by retro-orbital bleed on the same days.
(§6) The RSV strain for inoculation [A/A2 (RSV A/A2) (ATCC, Manassas, VA)] was propagated in HEp-2 cells after serial plaque-purification to reduce defective-interfering particles. A pool of virus designated containing approximately 3.0×10^8 pfu/mL in sucrose stabilizing media was used in the experiment. This stock of virus was stored at −80° C. and was previously characterized in vivo in the cotton rat model and validated for upper and lower respiratory tract replication.
Viral Titers: Nose and lung homogenates were centrifuged and diluted in EMEM. Confluent HEp-2 monolayers were infected in duplicate with diluted homogenates in 24-well plates. Following one hour incubation at 37° C. […] Plaques were counted and virus titer determined as geometric mean plaque-forming units per gram of tissue±standard error for all animals in a group at a given time.
Statistics: Group means for each parameter were evaluated by one-way ANOVA, then individual group means were compared [t-test, with multiple comparison correction] to the RSV-infected, vehicle-treated control group. […]

RSV [strain A/A2] [14] = experiment: Pulmonary histopathology in RSV-infected cotton rats; format: in vivo, Cotton rats [Sigmodon hispidus]; conditions: for lung histopathology scores (RSV-induced inflammation): Day 5 post infection, celgosivir 25, 50 or 100 mg/kg BID from one day before or after infection, synagis 2.5 mg/kg i.m. once per day, vs vehicle
Experimental: as §5, §6
Pulmonary Histopathology: Lungs were removed and inflated with 10% neutral buffered formalin to their normal volume, then fixed [using the same solution]. After fixation, lungs were embedded in paraffin, sectioned, and stained with H&E. Four parameters of pulmonary inflammation were evaluated: peribronchiolitis (inflammatory cell infiltration around the bronchioles), perivasculitis (inflammatory cell infiltration around the small blood vessels), interstitial pneumonia (inflammatory cell infiltration and thickening of alveolar walls), and alveolitis (cells within the alveolar spaces). Slides were blindly scored on a 0-4 severity scale. The scores are subsequently converted to a 0-100% normalized scale.
Statistics: Group means for each parameter were evaluated by one-way ANOVA, then individual group means were compared [t-test, with multiple comparison correction] to the RSV-infected, vehicle-treated control group. P<0.05 was considered statistically significant.

[15] = literature (Sorbera et al); cited from earlier work
[16] = MA104, visual examination, MA-104 cells, compounds tested at 0.3, 3, 30 and 300 microM
[17] = compounds tested at 0.3, 3, 30 and 300 microM
[18] = in theory, CELADEN study, confirming literature
[19] = positive control applied at 0.001-1 μg/ml
[20] = positive control applied at 0.5-500 μg/ml

Compound: O[C@H]1[C@H](O)[C@@H](O)CN2CC[C@H](O)[C@H]12 [Castanospermine]
EC50 (RSV strain A2 [1]; [16]): > 300 µM | CC50 at 6 days [2, 17]: > 300 µM | EC50 (RSV strain A2 [3]; [17]): > 300 µM | steady state maximum castanospermine concentration ([4]; CELADEN study regimen): 5100 nanograms/ml | EC50 (human rhinovirus-14 [5]; [17]): > 300 µM | efficacy against human rhinovirus-14 (human rhinovirus-14 [6]): Neither celgosivir nor castanospermine were determined to be efficacious | EC50 (human rhinovirus-14 [6]; [17]): > 300 µM | steady state minimum castanospermine concentration [7]: 400 nanograms/ml | CC50 at 6 days [8, 17]: > 300 µM | CC50 at 6 days [9, 17]: > 300 µM | safety in vitro (CC50 above the highest concentration tested) [10]: safe at all concentrations tested | CC50 at 6 days ([11]; CC50): > 300 µM

Compound: CCCC(=O)O[C@H]1CN2CC[C@H](O)[C@@H]2[C@@H](O)[C@@H]1O [Celgosivir HCL]
EC50 (RSV strain A2 [1]; [16]): 37 µM | EC50 (RSV strain A2 [1]; against RSV, text summary over visual and neutral red assays): 34 to 37 µM | efficacy against RSV infection (RSV strain A2 [1]; in vitro): efficacious | CC50 at 6 days [2, 17]: > 300 µM | minimum protective dose (achieving 400 nanograms/ml steady state minimum) ([12]; every 6 h): approximately 40 mg | minimum protective dose (achieving 400 nanograms/ml steady state minimum) ([12]; every 8 h): ~75 mg | minimum protective dose (achieving 400 nanograms/ml steady state minimum) ([12]; every 12 h): ~225 mg | nasal and lung viral titer (RSV [strain A/A2] [13]; listed as Celgosivir): no effect on viral titer in either the nose or the lung | nasal and lung viral titer (RSV [strain A/A2] [13]; listed as celgosivir): did not | EC50 (RSV strain A2 [3]; [17]): 34 µM | adverse event profile ([4]; CELADEN study regimen): higher incidence of GI effects, but not increased severity | maximum daily dose as a total dose [4, 18]: ≤ 600 mg | maximum dose as a single dose [4, 18]: ≤ 400 mg | lung histopathology scores (RSV-induced inflammation) (RSV [strain A/A2] [14]; listed as Celgosivir): reduced inflammation at all doses on three of four histopathology parameters | lung histopathology scores (RSV-induced inflammation) (RSV [strain A/A2] [14]; listed as celgosivir): reduced for at least one domain for all doses | impact of timing of administration on degree of protection against inflammation (RSV [strain A/A2] [14]; dosing begun one day prior to vs one day after infection (FIG. 1)): minimal impact | EC50 (human rhinovirus-14 [5]; [17]): > 300 µM | efficacy against human rhinovirus-14 (human rhinovirus-14 [6]): Neither celgosivir nor castanospermine were determined to be efficacious | EC50 (human rhinovirus-14 [6]; [17]): > 300 µM | CC50 at 6 days [8, 17]: > 300 µM | CC50 at 6 days [9, 17]: > 300 µM | pharmacokinetics, dose linearity [15]: linear with dose over the tolerated dose range | safety in vitro (CC50 above the highest concentration tested) ([10]; all concentrations tested (0.3-300 microM), text summary of the cytotoxicity assays): safe at all concentrations tested | CC50 at 6 days ([11]; MA-104 cells (embryonic African green monkey kidney), RSV studies, text summary over visual and neutral red assays, unit inferred, read-out: CC50): ≥ 300 µM | CC50 at 6 days ([11]; MA-104 cells (embryonic African green monkey kidney), visual examination, MA-104 cells, compounds tested at 0.3, 3, 30 and 300 microM, unit inferred, read-out: CC50): > 300 µM

EC50 (human rhinovirus-14 [5]; [19]): 0.031 µg/mL | EC50 (human rhinovirus-14 [6]; [19]): 0.032 µg/mL
Compound: CCOC(=O)c1ccc(OCCC2CCN(c3ccc(C)nn3)CC2)cc1 [Pirodavir, reference compound]
CC50 at 6 days [2, 19]: > 1 µg/mL | CC50 at 6 days [9, 19]: > 1 µg/mL

EC50 (RSV strain A2 [1]; MA104, visual examination, MA-104 cells, positive control applied at 0.5-500 μg/ml): 4 µg/mL | EC50 (RSV strain A2 [3]; [20]): 2.8 µg/mL
Compound: NC(=O)c1ncn([C@@H]2O[C@H](CO)[C@@H](O)[C@H]2O)n1 [Ribavirin, reference compound]
CC50 at 6 days [8, 20]: 62 µg/mL | CC50 at 6 days ([11]; MA-104 cells (embryonic African green monkey kidney), visual examination, MA-104 cells, positive control applied at 0.5-500 μg/ml, unit inferred, read-out: CC50): 340 µg/mL

Compound: Synagis: positive control in cotton rat RSV study, 2.5 mg/kg i.m. once per day
nasal and lung viral titer (RSV [strain A/A2] [13]): decrease viral titer | lung histopathology scores (RSV-induced inflammation) (RSV [strain A/A2] [14]): statistically significant reductions across all four histopathology domains
